Values joined by “and” are separate entries in the source; they are usually repeats but may differ in a detail not shown here. Equal entries are not always repeated.
Columns and labels:
[1] = pKa of amine lipid by TNS fluorescence; type: physicochemical; details: probe TNS (6-(p-toluidino)-2-naphthalenesulfonic acid sodium salt), unformulated amine lipid in ethanol, sodium phosphate buffers -9.0
In short: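 Unformulated amine lipid, about 100 μM final, in 0.1 M sodium phosphate buffers spanning pH 4.5–9.0 with TNS. Fluorescence read at ex 321/em 448 nm; normalized data fitted sigmoidally to give pKa.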

[2] = LNP average particle size and polydispersity by dynamic light scattering; type: physicochemical; details: LNP with the compound as amine lipid
Text: The LNPs have a size of about 1 to about 1,000 nm, about 10 to about 500 nm, about 20 to about 500 nm, in a sub-embodiment about 50 to about 400 nm, in a sub-embodiment about 50 to about 300 nm, in a sub-embodiment about 50 to about 200 nm, and in a sub-embodiment about 50 to about 150 nm, and in another sub-embodiment about 60 to about 120 nm. Preferably, the LNPs have a size from about 60 nm to about 100 nm. The average sizes (diameters) of the fully formed LNP, may be measured by dynamic light scattering on a Malvern Zetasizer. The LNP sample is diluted in phosphate buffered saline (PBS) so that the count rate is approximately 200-400 kcps. The data is presented as a weighted average of the intensity measure.
In some embodiments, the LNPs have a size of about 75 to about 120 nm. In some embodiments, the LNPs have a size of about 75 to about 100 nm. Unless indicated otherwise, all sizes referred to herein are the average sizes (diameters) of the fully formed nanoparticles, as measured by dynamic light scattering on a Malvern Zetasizer. The nanoparticle sample is diluted in phosphate buffered saline (PBS) so that the count rate is approximately 200-400 kcps. The data is presented as a weighted-average of the intensity measure (Z-average diameter).
Dynamic Light Scattering (“DLS”) is used to characterize the polydispersity index (“pdi”) and size of the LNPs of the present disclosure. DLS measures the scattering of light that results from subjecting a sample to a light source. PDI, as determined from DLS measurements, represents the distribution of particle size (around the mean particle size) in a population, with a perfectly uniform population having a PDI of zero. Electropheretic light scattering is used to characterize the surface charge of the LNP at a specified pH. The surface charge, or the zeta potential, is a measure of the magnitude of electrostatic repulsion/attraction between particles in the LNP suspension. Asymmetric-Flow Field Flow Fractionation—Multi-Angle Light Scattering (AF4-MALS) is used to separate particles in the composition by hydrodynamic radius and then measure the molecular weights, hydrodynamic radii and root mean square radii of the fractionated particles. […] Nanoparticle tracking analysis (NTA, Malvern Nanosight) can be used to determine particle size distribution as well as particle concentration. LNP samples are diluted appropriately and injected onto a microscope slide. A camera records the scattered light as the particles are slowly infused through field of view. After the movie is captured, the Nanoparticle Tracking Analysis processes the movie by tracking pixels and calculating a diffusion coefficient. This diffusion coefficient can be translated into the hydrodynamic radius of the particle. The instrument also counts the number of individual particles counted in the analysis to give particle concentration.
LNP compositions are analyzed for average particle size, polydispersity index (pdi), total RNA content, encapsulation efficiency of RNA, and zeta potential. LNP compositions may be further characterized by lipid analysis, AF4-MALS, NTA, and/or cryo-EM. Average particle size and polydispersity are measured by dynamic light scattering (DLS) using a Malvern Zetasizer DLS instrument. LNP samples were diluted with PBS buffer prior to being measured by DLS. Z-average diameter which is an intensity-based measurement of average particle size was reported along with number average diameter and pdi. A Malvern Zetasizer instrument is also used to measure the zeta potential of the LNP. Samples are diluted 1:17 (50 μL into 800 μL) in 0.1×PBS, pH 7.4 prior to measurement.

[3] = RNA encapsulation efficiency of LNP (Ribogreen fluorescence assay); type: physicochemical; details: LNP with the compound as amine lipid
Protocol: A fluorescence-based assay (Ribogreen®, ThermoFisher Scientific) is used to determine total RNA concentration and free RNA. Encapsulation efficiency is calculated as (Total RNA—Free RNA)/Total RNA. LNP samples are diluted appropriately with 1× TE buffer containing 0.2% Triton-X 100 to determine total RNA or 1× TE buffer to determine free RNA. Standard curves are prepared by utilizing the starting RNA solution used to make the compositions and diluted in 1× TE buffer+/−0.2% Triton-X 100. Diluted RiboGreen® dye (according to the manufacturer's instructions) is then added to each of the standards and samples and allowed to incubate for approximately 10 minutes at room temperature, in the absence of light. A SpectraMax M5 Microplate Reader (Molecular Devices) is used to read the samples with excitation, auto cutoff and emission wavelengths set to 488 nm, 515 nm, and 525 nm respectively. Total RNA and free RNA are determined from the appropriate standard curves.
Encapsulation efficiency is calculated as (Total RNA−Free RNA)/Total RNA. The same procedure may be used for determining the encapsulation efficiency of a DNA-based cargo component. For single-strand DNA, Oligreen Dye may be used and for double-strand DNA, Picogreen Dye.

mouse TTR = assay: Serum TTR ELISA in mice after LNP delivery; type: in vivo; details: mouse serum, relative to TSS control of same experiment
In short: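 Female CD-1 mice received LNP at 0.1 mpk unless noted; serum was collected 6 or 7 days later. Total serum TTR was measured by mouse prealbumin ELISA at 10,000- and/or 2,500-fold dilution and is expressed as a percentage of vehicle control.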

[4] = Expt. 1, composition ratio (mol %) 50/9/38/3 for Cmpnd 49, 50/10/38.5/1.5 for the others
[5] = Expt. 8, composition ratio (mol %) 50/9/38/3 for Cmpnd 49, 50/10/38.5/1.5 for the others
[6] = Expt. 2, composition ratio (mol %) 50/9/39.5/3 for Cmpnd 49, 50/9/39.5/1.5 for the others
[7] = Expt. 9, composition ratio (mol %) 50/9/38/3 for Cmpnd 49, 50/10/38.5/1.5 for the others
[8] = Expt. 6, composition ratio (mol %) 50/9/38/3 for Cmpnd 49, 50/10/38.5/1.5 for the others
[9] = Expt. 10, composition ratio (mol %) 50/9/38/3 for Cmpnd 49, 50/10/38.5/1.5 for the others
[10] = Expt. 7, composition ratio (mol %) 50/9/38/3 for Cmpnd 49, 50/10/38.5/1.5 for the others

**Q.** Which results are given for CCCCC/C=C\C/C=C\CCCCCCCC(=O)OCC(COC(=O)CCCCCCC/C=C\C/C=C\CCCCC)COC(=O)CCCC(CCCCCCCC)OC(=O)NCCN(C)CC (centres unmarked) [Compound 55, 2-(13-methyl-7-octyl-3,9-dioxo-2,8-dioxa-10,13-diazapentadecyl)propane-1,3-diyl (9Z,9′Z,12Z,12′Z)-bis(octadeca-9,12-dienoate)]?
**A.** pKa [1]: 6.43; Num Ave Size (nm) [2, 4]: 99.29 nm; PDI [2, 4]: 0.02; Z-Ave Size (nm) [2, 4]: 117.30 nm; Encapsulation (%) [3, 4]: 97%; Serum TTR % TSS (mouse TTR; dose 0.1 mpk): 72.79 % TSS

**Q.** For CCCCC/C=C\C/C=C\CCCCCCCC(=O)OCC(COC(=O)CCCCCCC/C=C\C/C=C\CCCCC)OC(=O)CCC(CCCCC)OC(=O)NCC1CCCN1C (centres unmarked) [Compound 70, 2-((4-((((1-methylpyrrolidin-2-yl)methyl)carbamoyl)oxy)nonanoyl)oxy)propane-1,3-diyl (9Z,9′Z,12Z,12′Z)-bis(octadeca-9,12-dienoate)], which pKa [1] is on record?
**A.** 6.61

**Q.** What about the “Num Ave Size (nm)” value [2, 5] of the same compound?
**A.** 102 nm

**Q.** And the PDI [2, 5]?
**A.** 0.018

**Q.** What about the “Z-Ave Size (nm)” value [2, 5] of the same compound?
**A.** 124.2 nm

**Q.** And the “Encapsulation (%)” value [3, 5]?
**A.** 99%

**Q.** What about the “Serum TTR % TSS” value (mouse TTR; dose 0.03 mpk) of the same compound?
**A.** 126.29 % TSS

**Q.** What about the “Serum TTR % TSS” value (mouse TTR; dose 0.1 mpk) of the same compound?
**A.** 87.49 % TSS

**Q.** With CCCCC/C=C\C/C=C\CCCCCCCC(=O)OCC(COC(=O)CCCCCCC/C=C\C/C=C\CCCCC)OC(=O)CCC(CCCCCC)OC(=O)NCC1CCCN1C (centres unmarked) [Compound 44, 2-((4-((((1-methylpyrrolidin-2-yl)methyl)carbamoyl)oxy)decanoyl)oxy)propane-1,3-diyl (9Z,9′Z,12Z,12′Z)-bis(octadeca-9,12-dienoate)] as the compound, how does the pKa [1] read?
**A.** 6.45

**Q.** And the “Num Ave Size (nm)” value [2, 6]?
**A.** 78.34 nm

**Q.** What about the PDI [2, 6] of the same compound?
**A.** 0.034

**Q.** What about the “Z-Ave Size (nm)” value [2, 6] of the same compound?
**A.** 97.65 nm

**Q.** What about the “Num Ave Size (nm)” value [2, 5] of the same compound?
**A.** 85.76 nm

**Q.** And the PDI [2, 5]?
**A.** 0.034

**Q.** And the “Z-Ave Size (nm)” value [2, 5]?
**A.** 104.3 nm

**Q.** What about the “Encapsulation (%)” value [3, 6] of the same compound?
**A.** 99%

**Q.** What about the “Encapsulation (%)” value [3, 5] of the same compound?
**A.** 99%

**Q.** And the “Serum TTR % TSS” value (mouse TTR; dose 0.03 mpk)?
**A.** 119.97 % TSS

**Q.** And the “Serum TTR % TSS” value (mouse TTR; dose 0.1 mpk)?
**A.** 78.79 % TSS

**Q.** What does the source list for CCCCC/C=C\C/C=C\CCCCCCCC(=O)OCC(COC(=O)CCCCCCC/C=C\C/C=C\CCCCC)OC(=O)CCC(CC(CC)CC)OC(=O)NCCN1CCCC1 (centres unmarked) [Compound 106, 2-((6-ethyl-4-(((2-(pyrrolidin-1-yl)ethyl)carbamoyl)oxy)octanoyl)oxy)propane-1,3-diyl (9Z,9′Z,12Z,12′Z)-bis(octadeca-9,12-dienoate)]?
**A.** pKa [1]: 6.8; Num Ave Size (nm) [2, 7]: 74 nm; PDI [2, 7]: 0.01; Z-Ave Size (nm) [2, 7]: 91 nm; Encapsulation (%) [3, 7]: 99%; Serum TTR % TSS (mouse TTR; dose 0.03 mpk, 0.03 mg/kg): 82.47 % TSS and 88.7 % TSS

**Q.** Which pKa [1] does the source give for CCCCC/C=C\C/C=C\CCCCCCCC(=O)OCC(COC(=O)CCCCCCC/C=C\C/C=C\CCCCC)OC(=O)CCC(CC/C=C\CCCCC)OC(=O)NCCN1CCCC1 (centres unmarked) [Compound 108, 2-(((Z)-4-(((2-(pyrrolidin-1-yl)ethyl)carbamoyl)oxy)tridec-7-enoyl)oxy)propane-1,3-diyl (9Z,9′Z,12Z,12′Z)-bis(octadeca-9,12-dienoate)] here?
**A.** 6.52

**Q.** And the “Num Ave Size (nm)” value [2, 7]?
**A.** 73 nm

**Q.** And the PDI [2, 7]?
**A.** 0.03

**Q.** And the “Z-Ave Size (nm)” value [2, 7]?
**A.** 89 nm

**Q.** And the “Encapsulation (%)” value [3, 7]?
**A.** 99%

**Q.** And the “Serum TTR % TSS” value (mouse TTR; dose 0.03 mpk)?
**A.** 57.12 % TSS

**Q.** Which pKa [1] does the source give for CCCCC/C=C\C/C=C\CCCCCCCC(=O)OCC(COC(=O)CCCCCCC/C=C\C/C=C\CCCCC)OC(=O)C1(C(CCCCCCCC)OC(=O)NCCN(C)CC)CC1 (centres unmarked) [Compound 86, 2-((1-(1-(((2-(ethyl(methyl)amino)ethyl)carbamoyl)oxy)nonyl)cyclopropane-1-carbonyl)oxy)propane-1,3-diyl (9Z,9′Z,12Z,12′Z)-bis(octadeca-9,12-dienoate)] here?
**A.** 6.23

**Q.** What about the “Num Ave Size (nm)” value [2, 8] of the same compound?
**A.** 68 nm

**Q.** And the PDI [2, 8]?
**A.** 0.04

**Q.** What about the “Z-Ave Size (nm)” value [2, 8] of the same compound?
**A.** 87.00 nm

**Q.** What about the “Encapsulation (%)” value [3, 8] of the same compound?
**A.** 98%

**Q.** And the “Serum TTR % TSS” value (mouse TTR; dose 0.03 mpk)?
**A.** 93.10 % TSS

**Q.** What about the “Serum TTR % TSS” value (mouse TTR; dose 0.1 mpk) of the same compound?
**A.** 28.80 % TSS

**Q.** For CCCCC/C=C\C/C=C\CCCCCCCC(=O)OCC(COC(=O)CCCCCCC/C=C\C/C=C\CCCCC)OC(=O)CCC(CCCCCCCC)OC(=O)OCCCCN(CC)CC (centres unmarked) [Compound 95, 2-((4-(((4-(diethylamino)butoxy)carbonyl)oxy)dodecanoyl)oxy)propane-1,3-diyl (9Z,9′Z,12Z,12′Z)-bis(octadeca-9,12-dienoate)], which pKa [1] is on record?
**A.** 6.15

**Q.** And the “Num Ave Size (nm)” value [2, 9]?
**A.** 88 nm

**Q.** And the PDI [2, 9]?
**A.** 0.01

**Q.** And the “Z-Ave Size (nm)” value [2, 9]?
**A.** 105 nm

**Q.** What about the Encapsulation (%) [3, 9] of the same compound?
**A.** 98%

**Q.** And the “Serum TTR % TSS” value (mouse TTR; dose 0.03 mpk)?
**A.** 77% TSS

**Q.** Which results are given for CCCCC/C=C\C/C=C\CCCCCCCC(=O)OCC(COC(=O)CCCCCCC/C=C\C/C=C\CCCCC)OC(=O)CCC(CCCCCCC)OC(=O)OCCCN1CCCC1 (centres unmarked) [Compound 75, 2-((4-(((3-(pyrrolidin-1-yl)propoxy)carbonyl)oxy)undecanoyl)oxy)propane-1,3-diyl (9Z,9′Z,12Z,12′Z)-bis(octadeca-9,12-dienoate)]?
**A.** pKa [1]: 6.17; Num Ave Size (nm) [2, 10]: 73.46 nm; PDI [2, 10]: 0.02; Z-Ave Size (nm) [2, 10]: 89.78 nm; Encapsulation (%) [3, 10]: 98%; Serum TTR % TSS (mouse TTR; dose 0.03 mpk): 45.098 % TSS; Serum TTR % TSS (mouse TTR; dose 0.1 mpk): 11.996 % TSS

Source: patent US12077483B2, “Modified amine lipids” (Intellia Therapeutics, Inc., priority 2018, dated 2024)
